Values quoted from earlier work, collected in patent US20260345571A1, “DELAMANID-CONTAINING SOLID DISPERSION” (priority 2022, published 2026).

What was measured:
[1] = melting point about 195 °C (decomposition)
[2] = test system: atypical mycobacteria; details: PTL 1
[3] = test system: Mycobacterium tuberculosis; details: PTL 1

## C[C@]1(COc2ccc(N3CCC(Oc4ccc(OC(F)(F)F)cc4)CC3)cc2)Cn2cc([N+](=O)[O-])nc2O1 [Delamanid, (2R)-2-methyl-6-nitro-2-[(4-{4-[4-(trifluoromethoxy)phenoxy]piperidin-1-yl}phenoxy)methyl]-2,3-dihydroimidazo[2,1-b]oxazole]
[1]
  Thermal stability: poor thermal stability
[2]
  Bactericidal action against atypical mycobacteria: excellent bactericidal action
[3]
  Bactericidal action against Mycobacterium tuberculosis: excellent bactericidal action
